Data taken from patent US20100075926A1, “ACTIVATION OF HISTONE DEACETYLASE 1 (HDAC1) PROTECTS AGAINST DNA DAMAGE AND INCREASES NEURONAL SURVIVAL” (priority 2008, published 2010).

Legend:
recombinant human HDAC10 = molecular target: T1, recombinant human HDAC10 (Homo sapiens, UniProt Q969S8); assay: Caliper mobility shift deacetylase assay, HDAC10; assay type: biochemical; settings: at the indicated concentration (8-40 μM); avg. n = 2; relative to DMSO
T1 sequence (Q969S8 1-669): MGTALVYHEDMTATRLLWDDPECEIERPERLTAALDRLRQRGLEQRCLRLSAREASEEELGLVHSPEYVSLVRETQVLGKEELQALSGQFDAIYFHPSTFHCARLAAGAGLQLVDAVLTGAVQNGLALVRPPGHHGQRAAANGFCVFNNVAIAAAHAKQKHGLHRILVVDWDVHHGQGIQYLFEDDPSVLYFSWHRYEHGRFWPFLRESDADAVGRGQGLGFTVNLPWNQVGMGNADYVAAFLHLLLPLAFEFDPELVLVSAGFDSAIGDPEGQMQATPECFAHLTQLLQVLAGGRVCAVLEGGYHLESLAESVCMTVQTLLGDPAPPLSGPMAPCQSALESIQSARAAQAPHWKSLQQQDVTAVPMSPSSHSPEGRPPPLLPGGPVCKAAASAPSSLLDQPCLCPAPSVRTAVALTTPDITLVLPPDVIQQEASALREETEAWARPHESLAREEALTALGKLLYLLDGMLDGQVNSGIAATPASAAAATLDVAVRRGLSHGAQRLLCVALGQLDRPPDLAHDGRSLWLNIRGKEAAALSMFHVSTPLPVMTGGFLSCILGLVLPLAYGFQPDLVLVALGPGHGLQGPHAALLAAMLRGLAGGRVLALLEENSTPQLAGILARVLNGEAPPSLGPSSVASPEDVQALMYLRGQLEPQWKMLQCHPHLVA
Description: (§1) To identify small molecule activators of HDAC1, a diverse collection of 1,760 small molecules composed of synthetic compounds, natural products, and a subset of FDA approved drugs were arrayed in 384-well plates as ˜10 mM dimethylsulphoxide (DMSO) stocks. To identify modulators (both activators and inhibitors) of HDACs, a fluorescence-based assay that utilizes Caliper's mobility shift assay technology (Hopkinton, Mass.) was used. This assay is based on the electrophoretic separation of N-acetyl lysine peptide substrate from the deacetylated product, which bears an additional positive charge. […] The product and substrate in each independent reaction were separated using a microfluidic chip (Caliper Life Sciences) run on a Caliper LC3000 (Caliper Life Sciences). The product and substrate fluorophore were excited at 488 nm and detected at 530 nm. Substrate conversion was calculated from the electrophoregram using HTS Well Analyzer software (Caliper Life Sciences). Since the amount of converted substrate is measured, and the reactions were performed at the Km for each enzyme, it is possible to identify both inhibitors and activators of HDACs using this assay.
(§2) Using the mobility shift assay, all compounds were screened in duplicate using a panel of class I and class II HDACs and a N-acetyl lysine peptide substrate. For class I HDACs, HDAC1, HDAC2, and HDAC8 were used. For class IIb HDACs, HDAC6 and to HDAC10 were used. Compounds were incubated for 18-24 hrs and the percent inhibition (avg. n=2) relative to a solvent (DMSO) control treatment of each compound determined through measurement of substrate conversion.

recombinant human HDAC1 = molecular target: T2, recombinant human HDAC1 (Homo sapiens, UniProt Q13547); assay: Caliper mobility shift deacetylase assay, HDAC1; assay type: biochemical; settings: at the indicated concentration (8-40 μM); avg. n = 2; relative to DMSO
T2 construct: purchased BPS Biosciences
Description: (§3) Values indicate % deacetylase inhibition (avg. n=2) relative to a solvent (DMSO) control treatment measured using recombinant human HDAC1 or HDAC2 and Caliper's mobility shift assay technology. Circle color corresponds to compounds shaded by degree of HDAC1 activity (red, decreased; blue, increased). (A) Complete dataset with box outlined with the red dashes corresponding to the region shown highlighted in (B), which in the assay corresponds to negative inhibition.
as §1
as §2, with “conversion. […] FIG. 11 provides a list of all of the structures that activated HDAC1 by a value of 5% or greater.” for “conversion.”

recombinant human HDAC2 = molecular target: T3, recombinant human HDAC2 (Homo sapiens, UniProt Q92769); assay: Caliper mobility shift deacetylase assay, HDAC2; assay type: biochemical; settings: at the indicated concentration (8-40 μM); avg. n = 2; relative to DMSO
T3 construct: purchased BPS Biosciences
Description: as §3, §1
as §2, with “conversion. […] FIG. 11 provides a list of all of the structures that activated HDAC1 by a value of 5% or greater.” for “conversion.”

recombinant human HDAC6 = molecular target: T4, recombinant human HDAC6 (Homo sapiens, UniProt Q9UBN7); assay: Caliper mobility shift deacetylase assay, HDAC6; assay type: biochemical; settings: at the indicated concentration (8-40 μM); avg. n = 2; relative to DMSO
T4 sequence (Q9UBN7 1-1215): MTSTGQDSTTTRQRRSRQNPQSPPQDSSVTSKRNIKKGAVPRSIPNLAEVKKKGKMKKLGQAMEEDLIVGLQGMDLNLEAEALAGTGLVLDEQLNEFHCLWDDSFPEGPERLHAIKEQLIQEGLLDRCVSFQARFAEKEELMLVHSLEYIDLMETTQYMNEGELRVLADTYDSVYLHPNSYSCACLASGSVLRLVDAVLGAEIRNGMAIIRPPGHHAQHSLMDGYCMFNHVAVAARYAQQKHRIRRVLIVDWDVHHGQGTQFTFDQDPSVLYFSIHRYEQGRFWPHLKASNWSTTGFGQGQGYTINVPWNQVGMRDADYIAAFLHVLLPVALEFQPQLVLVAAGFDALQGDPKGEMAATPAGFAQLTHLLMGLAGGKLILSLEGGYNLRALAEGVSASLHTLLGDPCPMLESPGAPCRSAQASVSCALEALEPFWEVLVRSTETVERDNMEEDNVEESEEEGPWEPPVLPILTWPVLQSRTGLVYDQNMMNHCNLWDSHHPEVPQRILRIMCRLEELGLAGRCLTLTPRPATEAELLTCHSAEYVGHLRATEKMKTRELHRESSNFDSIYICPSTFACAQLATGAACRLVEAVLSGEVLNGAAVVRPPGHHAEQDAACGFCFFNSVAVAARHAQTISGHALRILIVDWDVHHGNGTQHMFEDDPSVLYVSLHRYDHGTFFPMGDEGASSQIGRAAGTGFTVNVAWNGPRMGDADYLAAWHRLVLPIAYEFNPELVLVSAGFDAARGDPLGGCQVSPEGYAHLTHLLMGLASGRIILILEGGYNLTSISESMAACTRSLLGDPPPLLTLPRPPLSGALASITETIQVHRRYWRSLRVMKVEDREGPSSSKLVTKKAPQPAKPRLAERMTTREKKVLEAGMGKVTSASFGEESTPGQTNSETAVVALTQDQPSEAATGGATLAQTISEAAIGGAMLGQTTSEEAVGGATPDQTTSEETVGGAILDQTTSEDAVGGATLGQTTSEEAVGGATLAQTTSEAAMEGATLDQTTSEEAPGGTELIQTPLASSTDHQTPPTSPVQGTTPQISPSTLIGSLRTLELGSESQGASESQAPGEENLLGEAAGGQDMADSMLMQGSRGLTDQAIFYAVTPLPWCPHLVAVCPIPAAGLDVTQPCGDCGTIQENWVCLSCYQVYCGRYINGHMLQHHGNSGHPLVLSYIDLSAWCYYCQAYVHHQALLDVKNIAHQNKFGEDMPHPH
Description: as §1, §2

recombinant human HDAC8 = molecular target: T5, recombinant human HDAC8 (Homo sapiens, UniProt Q9BY41); assay: Caliper mobility shift deacetylase assay, HDAC8; assay type: biochemical; settings: at the indicated concentration (8-40 μM); avg. n = 2; relative to DMSO
T5 sequence (Q9BY41 1-377): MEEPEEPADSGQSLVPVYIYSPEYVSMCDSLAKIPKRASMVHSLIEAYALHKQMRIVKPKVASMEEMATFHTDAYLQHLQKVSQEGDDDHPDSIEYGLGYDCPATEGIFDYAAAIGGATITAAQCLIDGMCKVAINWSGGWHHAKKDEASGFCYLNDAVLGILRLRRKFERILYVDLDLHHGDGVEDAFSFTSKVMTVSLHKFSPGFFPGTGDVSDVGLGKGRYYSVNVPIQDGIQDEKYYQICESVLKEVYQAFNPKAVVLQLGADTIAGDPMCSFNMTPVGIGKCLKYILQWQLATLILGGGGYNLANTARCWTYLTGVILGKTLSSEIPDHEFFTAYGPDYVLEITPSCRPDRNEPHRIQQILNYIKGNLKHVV
Description: as §1, §2

WT mice = assay: Contextual fear conditioning in WT mice; assay type: in vivo, mouse
Description: Fear conditioning. Fear conditioning experiments were carried out as previously described (Kim et al., 2007), using a fear conditioning apparatus (TSE Systems, Midland, Mich.).

leukemia patients = settings: phase I clinical trial; cited from earlier work
primary cortical neurons = assay: γH2AX and Ki-67 immunostaining of primary cortical neurons treated with HDAC1 inhibitor; assay type: cell-based; settings: 1 μM, 24 h, compared to vehicle (DMSO) controls
Description: (A, B) Primary cortical neurons were transfected with either HDAC1 siRNA or random sequence siRNA, along with GFP at a 7:1 ratio to label transfected neurons. Cells were fixed at 24 h, 48 h, and 72 h post-transfection and immunostained for γH2AX. GFP-positive neurons were scored for γH2AX immunoreactivity and for cell death based on nuclear condensation and neuritic integrity, as described in Methods. (A) Representative micrographs. HDAC1 siRNA or control (random sequence) siRNA transfected neurons are indicated by arrows. The HDAC1 siRNA transfected neurons display neuritic breakage. The inset is a magnification of the γH2AX staining of the neuron indicated by arrow and asterisk, showing γH2AX foci of varying sizes. Percentage of γH2AX and cell death are shown as averages from multiple sets ±S.D. It was noted that transfection of control siRNA per se appeared to cause a low but detectable level of γH2AX immunoreactivity and cell death. […] Controls were treated with equal amounts of vehicle (DMSO). Total numbers of γH2AX and Ki-67 positive neurons were quantified over 20 microscope fields (field diameter ˜900 μm). Scale bar=100 μm. […] Scale bar=[…].
Our findings raised the possibility that p25/cdk5 may cause both cell cycle reentry and DNA damage through inhibition of HDAC1 activity. We examined the effects of siRNA-mediated knockdown or pharmacological inhibition of HDAC1.

T2 sequence (Q13547 whole entry): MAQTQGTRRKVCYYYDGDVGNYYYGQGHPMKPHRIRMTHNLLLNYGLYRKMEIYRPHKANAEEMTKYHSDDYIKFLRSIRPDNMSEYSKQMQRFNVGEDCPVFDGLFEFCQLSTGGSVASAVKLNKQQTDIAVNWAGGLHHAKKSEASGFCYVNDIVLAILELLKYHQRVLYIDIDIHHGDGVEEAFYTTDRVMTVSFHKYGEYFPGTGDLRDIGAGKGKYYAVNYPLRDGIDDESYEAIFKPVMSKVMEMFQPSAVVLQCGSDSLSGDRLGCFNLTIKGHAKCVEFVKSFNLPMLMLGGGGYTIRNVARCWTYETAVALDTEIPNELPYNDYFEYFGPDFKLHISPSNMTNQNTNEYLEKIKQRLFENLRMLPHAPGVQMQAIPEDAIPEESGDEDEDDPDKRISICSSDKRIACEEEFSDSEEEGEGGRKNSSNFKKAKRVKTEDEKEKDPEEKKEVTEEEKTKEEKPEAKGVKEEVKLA
T3 sequence (Q92769 whole entry): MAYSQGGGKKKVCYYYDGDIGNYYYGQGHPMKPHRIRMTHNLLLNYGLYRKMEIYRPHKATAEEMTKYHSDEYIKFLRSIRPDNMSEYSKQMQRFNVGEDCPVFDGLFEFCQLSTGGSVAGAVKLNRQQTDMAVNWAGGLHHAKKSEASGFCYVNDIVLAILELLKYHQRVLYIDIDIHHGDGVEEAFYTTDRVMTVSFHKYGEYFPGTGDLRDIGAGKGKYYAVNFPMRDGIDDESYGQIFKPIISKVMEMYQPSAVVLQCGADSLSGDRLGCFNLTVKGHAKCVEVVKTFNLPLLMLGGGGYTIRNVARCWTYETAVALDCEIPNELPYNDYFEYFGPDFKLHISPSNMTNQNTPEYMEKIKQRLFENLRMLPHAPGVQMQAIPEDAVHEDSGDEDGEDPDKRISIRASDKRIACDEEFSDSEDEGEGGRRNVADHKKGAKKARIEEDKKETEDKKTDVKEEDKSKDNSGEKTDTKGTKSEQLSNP

Row | Compound | HDAC10 % activation of deacetylase activity (recombinant human HDAC10) | HDAC1 % activation of deacetylase activity (recombinant human HDAC1) | HDAC2 % activation of deacetylase activity (recombinant human HDAC2) | HDAC6 % activation of deacetylase activity (recombinant human HDAC6) | HDAC8 % activation of deacetylase activity (recombinant human HDAC8) | freezing behavior in contextual fear conditioning (WT mice; 25 mg/kg IP daily for 10 days, vs saline) | associative learning capability (contextual fear conditioning) (WT mice; 12.5 or 25 mg/kg IP daily for 10 days) | dose-limiting toxicity (DLT) (leukemia patients) | aberrant expression of Ki-67 (Ki-67 positive neurons) (primary cortical neurons) | double strand DNA breaks (γH2AX positive neurons) (primary cortical neurons)
1 | CC(C)=CCC[C@]1(C)C=Cc2c(O)c3c(c(CC=C(C)C)c2O1)O[C@]12C(=C[C@@H]4C[C@H]1C(C)(C)O[C@@]2(C/C=C(/C)C(=O)O)C4=O)C3=O [gambogic acid] | 13% | 22% | −5% | −63% | −8% | – | – | – | – | –
2 | tetrahydrogamboic acid | 13% | 11% | −6% | −10% | −1% | – | – | – | – | –
3 | Nc1ccccc1NC(=O)c1ccc(CNC(=O)OCc2cccnc2)cc1 [MS-275] | – | – | – | – | – | reduced freezing behavior | impaired associative learning capability | neurologic toxicity manifesting as unsteady gait and somnolence | 1.8 fold increase | 8.1 fold increase
4 | COC(=O)[C@H]1[C@H]2C[C@H]3c4[nH]c5ccccc5c4CCN3C[C@H]2CC[C@@H]1O [alpha-yohimbine] | 1% | 5% | −5% | −2% | 0% | – | – | – | – | –
5 | O=c1c(O)cc([C@H]2Oc3cc(O)cc(O)c3C[C@H]2O)cc2c([C@H]3Oc4cc(O)cc(O)c4C[C@H]3O)cc(O)c(O)c12 [theaflavin] | 0% | 5% | −8% | −79% | −10% | – | – | – | – | –
